Experimental data reported in the NIST ThermoML archive (doi:10.1021/je050050p).

Experiment: xn = mol fraction of the nth substance listed
Details: Liquid, Vibrating tube method

CN(C)C=O [dimethylformamide] + O=C=O
Details | mass density [kg/m3]
313.13 K, 8014 kPa, x2 = 0.6235 | 949.79
313.13 K, 9041 kPa, x2 = 0.6235 | 952.04
313.13 K, 10057 kPa, x2 = 0.6235 | 954.25
313.13 K, 10998 kPa, x2 = 0.6235 | 956.28
313.13 K, 11991 kPa, x2 = 0.6235 | 958.34
313.13 K, 12985 kPa, x2 = 0.6235 | 960.34
313.13 K, 14000 kPa, x2 = 0.6235 | 962.36
313.13 K, 14996 kPa, x2 = 0.6235 | 964.28
313.13 K, 16016 kPa, x2 = 0.6235 | 966.23
313.13 K, 16993 kPa, x2 = 0.6235 | 968.02
313.13 K, 18006 kPa, x2 = 0.6235 | 969.86
313.13 K, 18988 kPa, x2 = 0.6235 | 971.7
313.13 K, 20033 kPa, x2 = 0.6235 | 973.47
313.13 K, 21061 kPa, x2 = 0.6235 | 975.25
313.13 K, 22021 kPa, x2 = 0.6235 | 976.88
313.13 K, 22996 kPa, x2 = 0.6235 | 978.52
313.13 K, 24001 kPa, x2 = 0.6235 | 980.14
313.13 K, 25034 kPa, x2 = 0.6235 | 981.79
313.14 K, 9015 kPa, x2 = 0.8091 | 920.03
313.14 K, 9992 kPa, x2 = 0.8091 | 923.92
313.14 K, 10006 kPa, x2 = 0.9311 | 835.47
313.14 K, 11003 kPa, x2 = 0.8091 | 927.79
313.14 K, 11013 kPa, x2 = 0.9311 | 846.13
313.14 K, 12022 kPa, x2 = 0.8091 | 931.54
313.14 K, 12041 kPa, x2 = 0.9311 | 855.75
313.14 K, 13011 kPa, x2 = 0.8091 | 934.99
313.14 K, 13017 kPa, x2 = 0.9311 | 864.01
313.14 K, 14003 kPa, x2 = 0.8091 | 938.37
313.14 K, 14036 kPa, x2 = 0.9311 | 871.87
313.14 K, 15006 kPa, x2 = 0.8091 | 941.63
313.14 K, 15031 kPa, x2 = 0.9311 | 878.95
313.14 K, 16000 kPa, x2 = 0.8091 | 944.75
313.14 K, 16006 kPa, x2 = 0.9311 | 885.43
313.14 K, 16988 kPa, x2 = 0.8091 | 947.8
313.14 K, 17030 kPa, x2 = 0.9311 | 891.82
313.14 K, 17988 kPa, x2 = 0.9311 | 897.48
313.14 K, 18019 kPa, x2 = 0.8091 | 950.82
313.14 K, 18996 kPa, x2 = 0.8091 | 953.63
313.14 K, 19037 kPa, x2 = 0.9311 | 903.28
313.14 K, 20022 kPa, x2 = 0.9311 | 908.47
313.14 K, 20032 kPa, x2 = 0.8091 | 956.51
313.14 K, 21000 kPa, x2 = 0.9311 | 913.41
313.14 K, 21035 kPa, x2 = 0.8091 | 959.25
313.14 K, 21995 kPa, x2 = 0.8091 | 961.81
313.14 K, 22002 kPa, x2 = 0.9311 | 918.23
313.14 K, 23016 kPa, x2 = 0.9311 | 922.92
313.14 K, 23033 kPa, x2 = 0.8091 | 964.52
313.14 K, 24006 kPa, x2 = 0.9311 | 927.35
313.14 K, 24015 kPa, x2 = 0.8091 | 966.98
313.14 K, 25006 kPa, x2 = 0.8091 | 969.42
313.14 K, 25020 kPa, x2 = 0.9311 | 931.7
313.15 K, 4032 kPa, x2 = 0.2876 | 948.43
313.15 K, 5041 kPa, x2 = 0.2876 | 949.39
313.15 K, 6004 kPa, x2 = 0.2876 | 950.24
313.15 K, 6005 kPa, x2 = 0.4268 | 955.61
313.15 K, 6022 kPa, x2 = 0.4461 | 956.18
313.15 K, 6967 kPa, x2 = 0.2876 | 951.12
313.15 K, 6991 kPa, x2 = 0.4461 | 957.31
313.15 K, 7013 kPa, x2 = 0.4268 | 956.75
313.15 K, 8002 kPa, x2 = 0.2876 | 952.05
313.15 K, 8008 kPa, x2 = 0.4268 | 957.9
313.15 K, 8024 kPa, x2 = 0.4461 | 958.53
313.15 K, 9005 kPa, x2 = 0.2876 | 952.94
313.15 K, 9006 kPa, x2 = 0.4461 | 959.66
313.15 K, 9014 kPa, x2 = 0.4268 | 958.99
313.15 K, 9998 kPa, x2 = 0.4461 | 960.8
313.15 K, 10000 kPa, x2 = 0.2876 | 953.81
313.15 K, 10006 kPa, x2 = 0.4268 | 960.05
313.15 K, 10989 kPa, x2 = 0.4461 | 961.9
313.15 K, 11017 kPa, x2 = 0.2876 | 954.68
313.15 K, 11017 kPa, x2 = 0.4268 | 961.14
313.15 K, 12006 kPa, x2 = 0.4268 | 962.22
313.15 K, 12024 kPa, x2 = 0.2876 | 955.56
313.15 K, 12025 kPa, x2 = 0.4461 | 963.02
313.15 K, 13003 kPa, x2 = 0.4461 | 964.12
313.15 K, 13004 kPa, x2 = 0.4268 | 963.25
313.15 K, 13007 kPa, x2 = 0.2876 | 956.41
313.15 K, 13997 kPa, x2 = 0.4268 | 964.28
313.15 K, 13999 kPa, x2 = 0.4461 | 965.2
313.15 K, 14004 kPa, x2 = 0.2876 | 957.26
313.15 K, 14993 kPa, x2 = 0.4461 | 966.26
313.15 K, 15003 kPa, x2 = 0.4268 | 965.36
313.15 K, 15006 kPa, x2 = 0.2876 | 958.1
313.15 K, 15999 kPa, x2 = 0.2876 | 958.91
313.15 K, 16006 kPa, x2 = 0.4461 | 967.34
313.15 K, 16007 kPa, x2 = 0.4268 | 966.35
313.15 K, 17000 kPa, x2 = 0.4268 | 967.35
313.15 K, 17005 kPa, x2 = 0.2876 | 959.75
313.15 K, 17007 kPa, x2 = 0.4461 | 968.38
313.15 K, 17985 kPa, x2 = 0.4461 | 969.42
313.15 K, 17994 kPa, x2 = 0.4268 | 968.36
313.15 K, 18009 kPa, x2 = 0.2876 | 960.57
313.15 K, 19015 kPa, x2 = 0.4461 | 970.46
313.15 K, 19017 kPa, x2 = 0.4268 | 969.38
313.15 K, 19021 kPa, x2 = 0.2876 | 961.39
313.15 K, 19994 kPa, x2 = 0.4268 | 970.35
313.15 K, 20001 kPa, x2 = 0.2876 | 962.21
313.15 K, 20007 kPa, x2 = 0.4461 | 971.48
313.15 K, 20983 kPa, x2 = 0.4268 | 971.33
313.15 K, 20996 kPa, x2 = 0.4461 | 972.47
313.15 K, 21004 kPa, x2 = 0.2876 | 963
313.15 K, 22022 kPa, x2 = 0.2876 | 963.82
313.15 K, 22022 kPa, x2 = 0.4461 | 973.5
313.15 K, 22024 kPa, x2 = 0.4268 | 972.32
313.15 K, 22993 kPa, x2 = 0.4461 | 974.47
313.15 K, 23016 kPa, x2 = 0.2876 | 964.58
313.15 K, 23020 kPa, x2 = 0.4268 | 973.26
313.15 K, 23989 kPa, x2 = 0.2876 | 965.35
313.15 K, 23996 kPa, x2 = 0.4461 | 975.45
313.15 K, 24016 kPa, x2 = 0.4268 | 974.2
313.15 K, 24992 kPa, x2 = 0.4461 | 976.41
313.15 K, 24996 kPa, x2 = 0.4268 | 975.14
313.15 K, 25004 kPa, x2 = 0.2876 | 966.15
313.16 K, 5026 kPa, x2 = 0.4502 | 955.28
313.16 K, 5988 kPa, x2 = 0.4502 | 956.32
313.16 K, 6028 kPa, x2 = 0.4068 | 955.07
313.16 K, 7004 kPa, x2 = 0.4502 | 957.42
313.16 K, 7010 kPa, x2 = 0.4068 | 956.12
313.16 K, 7999 kPa, x2 = 0.4502 | 958.57
313.16 K, 8028 kPa, x2 = 0.4068 | 957.19
313.16 K, 9005 kPa, x2 = 0.4068 | 958.24
313.16 K, 9031 kPa, x2 = 0.4502 | 959.69
313.16 K, 10012 kPa, x2 = 0.4502 | 960.79
313.16 K, 10041 kPa, x2 = 0.4068 | 959.33
313.16 K, 10994 kPa, x2 = 0.4068 | 960.3
313.16 K, 11036 kPa, x2 = 0.4502 | 961.92
313.16 K, 11990 kPa, x2 = 0.4068 | 961.32
313.16 K, 12022 kPa, x2 = 0.4502 | 963.01
313.16 K, 12989 kPa, x2 = 0.4068 | 962.33
313.16 K, 13014 kPa, x2 = 0.4502 | 964.13
313.16 K, 14015 kPa, x2 = 0.4502 | 965.19
313.16 K, 14027 kPa, x2 = 0.4068 | 963.34
313.16 K, 14992 kPa, x2 = 0.4068 | 964.31
313.16 K, 15005 kPa, x2 = 0.4502 | 966.24
313.16 K, 15994 kPa, x2 = 0.4068 | 965.3
313.16 K, 16019 kPa, x2 = 0.4502 | 967.32
313.16 K, 16994 kPa, x2 = 0.4068 | 966.27
313.16 K, 17003 kPa, x2 = 0.4502 | 968.34
313.16 K, 17999 kPa, x2 = 0.4502 | 969.4
313.16 K, 18006 kPa, x2 = 0.4068 | 967.25
313.16 K, 18978 kPa, x2 = 0.4068 | 968.19
313.16 K, 19033 kPa, x2 = 0.4502 | 970.43
313.16 K, 19978 kPa, x2 = 0.4502 | 971.41
313.16 K, 20043 kPa, x2 = 0.4068 | 969.19
313.16 K, 21007 kPa, x2 = 0.4502 | 972.47
313.16 K, 21020 kPa, x2 = 0.4068 | 970.1
313.16 K, 22002 kPa, x2 = 0.4068 | 970.98
313.16 K, 22023 kPa, x2 = 0.4502 | 973.48
313.16 K, 23040 kPa, x2 = 0.4502 | 974.49
313.16 K, 23059 kPa, x2 = 0.4068 | 971.98
313.16 K, 24007 kPa, x2 = 0.4502 | 975.45
313.16 K, 24032 kPa, x2 = 0.4068 | 972.87
313.16 K, 24995 kPa, x2 = 0.4502 | 976.42
313.16 K, 25024 kPa, x2 = 0.4068 | 973.76
323.07 K, 9001 kPa, x2 = 0.6235 | 928.72
323.07 K, 10031 kPa, x2 = 0.6235 | 931.44
323.07 K, 11013 kPa, x2 = 0.6235 | 933.93
323.07 K, 12042 kPa, x2 = 0.6235 | 936.47
323.07 K, 13033 kPa, x2 = 0.6235 | 938.86
323.07 K, 13992 kPa, x2 = 0.6235 | 941.1
323.07 K, 14972 kPa, x2 = 0.6235 | 943.31
323.07 K, 15993 kPa, x2 = 0.6235 | 945.57
323.07 K, 16998 kPa, x2 = 0.6235 | 947.71
323.07 K, 18015 kPa, x2 = 0.6235 | 949.84
323.07 K, 18988 kPa, x2 = 0.6235 | 951.84
323.07 K, 20012 kPa, x2 = 0.6235 | 953.89
